Laboratory results as given in patent US9725703B2, “Formulations and methods for stabilizing PCR reagents” (BIOMATRICA, INC., priority 2012, dated 2017).

Target: T1, Roche FastStart Taq polymerase (Thermus aquaticus, UniProt P19821)
T1 construct: purchased Roche
Assay: Multiplex end-point PCR (GAPDH) with stabilized Roche FastStart Taq after storage
Type: biochemical
Conditions: 3 weeks at 45° C.; polymerase mixed 1:4 with stabilizer; FIG. 1b
Description: Roche FastStart Taq polymerase (stored at −20° C. in 50% glycerol) was mixed in a 1:4 ratio with a range of liquid stabilizer solutions as set forth in Table 4 and incubated at both room temperature and 45° C. A non-protected sample was also included where the polymerase was mixed with an additional quantity of its storage buffer. At various time points, aliquots were taken from the stabilized enzyme solutions and used to perform end-point PCR assays. At each time point, the stabilized enzymes were compared to a frozen positive control enzyme in the same assay.
For end-point PCR, a multiplex assay using three primer sets to generate 3 different size fragments of the GAPDH gene was used. Typical PCR reactions contained the following: 1× Roche PCR reaction buffer, 10 ng human genomic DNA, 300 μM dNTPs, 240 nM GAPDH primer set A, 600 nM GAPDH primer set B, 1.2 μM GAPDH primer set C, and 1 unit Roche FastStart Taq polymerase. Cycling conditions were 2 minutes at 95° C. followed by 35 cycles of 30 seconds at 95° C., 30 seconds at 56° C., 30 seconds at 68° C., followed by 5 minutes at 68° C. PCR products were run on 2% agarose gels and visualized using ethidium bromide.

T1 sequence (P19821 whole entry): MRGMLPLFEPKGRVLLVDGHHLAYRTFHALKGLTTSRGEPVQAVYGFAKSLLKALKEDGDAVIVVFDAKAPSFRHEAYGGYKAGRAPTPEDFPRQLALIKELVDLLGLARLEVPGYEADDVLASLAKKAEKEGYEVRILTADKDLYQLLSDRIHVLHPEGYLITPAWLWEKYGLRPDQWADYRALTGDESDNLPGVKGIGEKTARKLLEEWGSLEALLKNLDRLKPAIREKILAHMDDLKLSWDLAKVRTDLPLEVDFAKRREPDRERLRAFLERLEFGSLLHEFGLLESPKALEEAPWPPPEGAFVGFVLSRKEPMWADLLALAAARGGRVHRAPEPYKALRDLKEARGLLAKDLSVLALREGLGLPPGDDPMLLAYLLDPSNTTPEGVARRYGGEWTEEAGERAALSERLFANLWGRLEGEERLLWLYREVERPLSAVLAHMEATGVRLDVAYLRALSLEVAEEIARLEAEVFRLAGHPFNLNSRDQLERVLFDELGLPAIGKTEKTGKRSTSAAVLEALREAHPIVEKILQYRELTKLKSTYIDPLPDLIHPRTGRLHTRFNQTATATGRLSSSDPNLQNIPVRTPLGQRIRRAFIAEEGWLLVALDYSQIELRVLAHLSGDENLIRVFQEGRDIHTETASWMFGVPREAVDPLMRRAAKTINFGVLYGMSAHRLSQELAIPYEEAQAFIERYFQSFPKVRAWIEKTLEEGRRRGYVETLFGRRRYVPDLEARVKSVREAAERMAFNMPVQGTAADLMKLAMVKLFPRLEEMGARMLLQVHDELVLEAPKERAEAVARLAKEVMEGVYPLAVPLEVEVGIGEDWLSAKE

## C[N+]1(CCC(=O)[O-])CCC(O)CC1 (stereo not shown) [Compound 102, 3-(4-hydroxy-1-methylpiperidinium-1-yl)propanoate]
  polymerase activity after storage (end-point PCR): provides increased stability
